Test results from US7220756B2, “N-sulfonylheterocyclopyrrolyl-alkylamine compounds as 5-hydroxytryptamine-6 ligands” (Wyeth, priority 2003, dated 2007).

target: T1, human cloned 5-HT6 receptors (Homo sapiens, UniProt P50406); assay: 5-HT6 binding affinity, [3H]-LSD displacement; conditions: not given
T1 construct: expressed in transfected cells; host or cells: HeLa cells
Experimental: The affinity of test compounds for the serotonin 5-HT6 receptor is evaluated in the following manner. Cultured Hela cells expressing human cloned 5-HT6 receptors are harvested and centrifuged at low speed (1,000×g) for 10.0 min to remove the culture media. The harvested cells are suspended in half volume of fresh physiological phosphate buffered saline solution and recentrifuged at the same speed. This operation is repeated. The collected cells are then homogenized in ten volumes of 50 mM Tris.HCl (pH 7.4) and 0.5 mM EDTA. The homogenate is centrifuged at 40,000×g for 30.0 min and the precipitate is collected. The obtained pellet is resuspended in 10 volumes of Tris.HCl buffer and recentrifuged at the same speed. The final pellet is suspended in a small volume of Tris.HCl buffer and the tissue protein content is determined in aliquots of 10–25 μl volumes. Bovine Serum Albumin is used as the standard in the protein determination according to the method described in Lowry et al., J. Biol. Chem., 193:265 (1951). The volume of the suspended cell membranes is adjusted to give a tissue protein concentration of 1.0 mg/ml of suspension. The prepared membrane suspension (10 times concentrated) is aliquoted in 1.0 ml volumes and stored at −70° C. until used in subsequent binding experiments.
The reaction is allowed to proceed in the dark for 120 min at room temperature, at which time, the bound ligand-receptor complex is filtered off on a 96 well unifilter with a Packard Filtermate® 196 Harvester. The bound complex caught on the filter disk is allowed to air dry and the radioactivity is measured in a Packard TopCount® equipped with six photomultiplier detectors, after the addition of 40.0 μl Microscint®−20 scintillant to each shallow well. The unifilter plate is heat-sealed and counted in a PackardTopCount® with a tritium efficiency of 31.0%.
Binding in the presence of varying concentrations of test compound is expressed as a percentage of specific binding in the absence of test compound. The results are plotted as log % bound versus log concentration of test compound. […] A linear regression line of data points is plotted, from which the IC50 value is determined and the Ki value is determined based upon the following equation: Ki=IC50/(1+L/KD) where L is the concentration of the radioactive ligand used and KD is the dissociation constant of the ligand for the receptor, both expressed in nM.

T1 sequence (P50406 whole entry): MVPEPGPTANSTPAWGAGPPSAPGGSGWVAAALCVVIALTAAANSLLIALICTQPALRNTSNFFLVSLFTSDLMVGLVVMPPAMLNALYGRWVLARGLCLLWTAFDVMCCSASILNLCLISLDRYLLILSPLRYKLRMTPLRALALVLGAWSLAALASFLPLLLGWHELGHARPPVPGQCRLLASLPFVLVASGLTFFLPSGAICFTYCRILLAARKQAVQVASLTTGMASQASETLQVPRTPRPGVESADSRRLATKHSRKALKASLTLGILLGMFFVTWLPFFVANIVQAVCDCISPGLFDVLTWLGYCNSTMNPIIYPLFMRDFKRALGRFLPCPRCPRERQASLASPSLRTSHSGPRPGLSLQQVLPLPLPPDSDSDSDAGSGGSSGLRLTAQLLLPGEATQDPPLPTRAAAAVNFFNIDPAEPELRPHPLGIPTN

Compound	Ki
NCCc1cn(S(=O)(=O)c2ccccc2)c2sccc12 [Example 8, 2-[6-(phenylsulfonyl)-6H-thieno[2,3-b]pyrrol-4-yl]ethylamine]	7.5 ± 0.9 nM

same assay, conditions: membranes of Hela cells expressing human cloned 5-HT6 receptors; [3H]-LSD 3.0 nM; 120 min, room temperature; read-out: 5-HT6 Binding Ki

Compound	Ki
2-{[4-(2-chlorophenyl)sulfonyl]-4H-thieno[3,2-b]pyrrol-6-yl}ethylamine [Example 69]	2.7 ± 0.2 nM
2-{[4-(3-chlorophenyl)sulfonyl]-4H-thieno[3,2-b]pyrrol-6-yl}ethylamine [Example 65]	2.7 ± 0.1 nM
2-{[6-(2,6-dichloroimidazo[2,1-b][1,3]thiazol-5-yl)sulfonyl]-6H-thieno[2,3-b]pyrrol-4-yl}-ethylamine [Example 21]	21.3 ± 1.5 nM
2-{[6-(2-chloroimidazo[1,2-a]pyrid-3-yl)sulfonyl]-6H-thieno[2,3-b]pyrrol-4-yl}-ethylamine [Example 20]	11.3 ± 0.3 nM
2-{[6-(2-chlorophenyl)sulfonyl]-6H-thieno[2,3-b]pyrrol-4-yl}ethylamine [Example 18]	13 ± 1.5 nM
2-{[6-(3-Chlorophenyl)sulfonyl]-6H-thieno[2,3-b]pyrrol-4-yl}ethylamine [Example 10]	4.3 ± 0.5 nM
2-{[6-(3-chloro-2-methylphenyl)sulfonyl]-6H-thieno[2,3-b]pyrrol-4-yl}ethylamine [Example 34]	13.3 ± 1.5 nM
2-{[6-(4-chlorophenyl)sulfonyl]-6H-thieno[2,3-b]pyrrol-4-yl}ethylamine [Example 22]	13.3 ± 0.7 nM
2-{[6-(5-Chlorothien-2-yl)sulfonyl]-6H-thieno[2,3-b]pyrrol-4-yl}ethylamine [Example 11]	4.9 ± 0.8 nM
2-{[6-(6-Chloroimidazo[2,1-b][1,3]thiazol-5-yl)sulfonyl]-6H-thieno[2,3-b]pyrrol-4-yl}-ethylamine [Example 12]	2.1 ± 0.1 nM
NCCc1cn(S(=O)(=O)c2cccc(C(F)(F)F)c2)c2sccc12 [Example 9, 2-{[6-(3-trifluoromethyl)phenylsulfonyl]-6H-thieno[2,3-b]pyrrol-4-yl}ethylamine]	8.9 ± 0.7 nM
NCCc1cn(S(=O)(=O)c2ccc3ccccc3c2)c2sccc12 [Example 13, 2-[6-(2-naphthylsulfonyl)-6H-thieno[2,3-b]pyrrol-4-yl]ethylamine]	16.7 ± 2.4 nM
COc1cccc(S(=O)(=O)n2cc(CCN)c3ccsc32)c1 [Example 14, 2-{[6-(3-methoxyphenyl)sulfonyl]-6H-thieno[2,3-b]pyrrol-4-yl}ethylamine]	2.3 ± 0.1 nM
Cc1c(S(=O)(=O)n2cc(CCN)c3ccsc32)sc2ccc(Cl)cc12 [Example 15, 2-{[6-(5-chloro-3-methylbenzo[b]thien-2-yl)sulfonyl]-6H-thieno[2,3-b]pyrrol-4-yl}-ethylamine]	102 ± 5.7 nM
NCCc1cn(S(=O)(=O)c2ccccc2F)c2sccc12 [Example 16, 2-{[6-(2-fluorophenyl)sulfonyl]-6H-thieno[2,3-b]pyrrol-4-yl}ethylamine]	12 ± 1.2 nM
NCCc1cn(S(=O)(=O)c2cccc(F)c2)c2sccc12 [Example 17, 2-{[6-(3-fluorophenyl)sulfonyl]-6H-thieno[2,3-b]pyrrol-4-yl}ethylamine]	9.3 ± 0.7 nM
NCCc1cn(S(=O)(=O)c2cnc3sccn23)c2sccc12 [Example 19, 2-{[6-(imidazo[2,1-b][1,3]thiazol-5-yl)sulfonyl]-6H-thieno[2,3-b]pyrrol-4}ethylamine]	3.4 ± 0.6 nM
NCCc1cn(S(=O)(=O)c2cccc(Cl)c2Cl)c2sccc12 [Example 23, 2-{[6-(2,3-dichlorophenyl)sulfonyl)-6H-thieno[2,3-b]pyrrol-4-yl}ethylamine]	7.1 ± 0.2 nM
NCCc1cn(S(=O)(=O)c2cccc(Br)c2)c2sccc12 [Example 24, 2-{[6-(3-bromophenyl)sulfonyl]-6H-thieno[2,3-b]pyrrol-4-yl}ethylamine]	9 ± 0.5 nM
NCCc1cn(S(=O)(=O)c2ccc(Br)s2)c2sccc12 [Example 25, 2-{[6-(5-bromothien-2-yl)sulfonyl]-6H-thieno[2,3-b]pyrrol-4-yl}ethylamine]	17.7 ± 3.2 nM
NCCc1cn(S(=O)(=O)c2cccs2)c2sccc12 [Example 26]	20 ± 2 nM

Compound	Ki
NCCc1cn(S(=O)(=O)c2cc(Cl)c(Cl)s2)c2sccc12 [Example 27, 2-{[6-(4,5-dichlorothien-2-yl)sulfonyl]-6H-thieno[2,3-b]pyrrol-4-yl}ethylamine]	32.7 ± 4.1 nM
NCCc1cn(S(=O)(=O)c2cccc3ccccc23)c2sccc12 [Example 28, 2-[6-(1-naphthylsulfonyl)-6H-thieno[2,3-b]pyrrol-4-yl]ethylamine]	9.2 ± 0.8 nM
Cc1cccc(S(=O)(=O)n2cc(CCN)c3ccsc32)c1 [Example 29, 2-{[6-(3-methylphenyl)sulfonyl]-6H-thieno[2,3-b]pyrrol-4-yl}ethylamine]	7.8 ± 0.4 nM
Cc1nc(S(=O)(=O)n2cc(CCN)c3ccsc32)cn1C [Example 30, 2-{[6-(1,2-dimethyl-1H-imidazol-4-yl)sulfonyl]-6H-thieno[2,3-b]pyrrol-4-yl}ethylamine]	134 ± 10.3 nM
NCCc1cn(S(=O)(=O)c2cccc3cccnc23)c2sccc12 [Example 31, 2-{[6-(quinolin-8-yl)sulfonyl]-6H-thieno[2,3-b]pyrrol-4-yl}-ethylamine]	8.6 ± 0.8 nM
NCCc1cn(S(=O)(=O)c2ccccc2C(F)(F)F)c2sccc12 [Example 32, 2-{{[6-(2-trifluoromethyl)phenyl]sulfonyl}-6H-thieno[2,3-b]pyrrol-4-yl}ethylamine]	21 ± 2.7 nM
COc1ccc(S(=O)(=O)n2cc(CCN)c3ccsc32)cc1 [Example 33, 2-{[6-(4-methoxyphenyl)sulfonyl]-6H-thieno[2,3-b]pyrrol-4-yl}ethylamine]	24.7 ± 1.7 nM
NCCc1cn(S(=O)(=O)c2ccc(N)cc2)c2sccc12 [Example 35, 2-{[6-(4-aminophenyl)sulfonyl]-6H-thieno[2,3-b]pyrrol-4-yl}ethylamine]	2.4 ± 0.3 nM
CN(C)CCc1cn(S(=O)(=O)c2ccccc2)c2sccc12 [Example 38, N,N-Dimethyl-2-[6-(phenylsulfonyl)-6H-thieno[2,3-b]pyrrol-4-yl]ethylamine]	1.2 ± 0.1 nM
CN(C)CCc1cn(S(=O)(=O)c2cccc(C(F)(F)F)c2)c2sccc12 [Example 39, N,N-dimethyl-2-{{[6-(3-trifluoromethyl)phenyl]sulfonyl}-6H-thieno[2,3-b]pyrrol-4-yl}-ethylamine]	2.3 ± 0.5 nM
COc1cccc(S(=O)(=O)n2cc(CCN(C)C)c3ccsc32)c1 [Example 44]	0.8 ± 0.1 nM
Cc1c(S(=O)(=O)n2cc(CCN(C)C)c3ccsc32)sc2ccc(Cl)cc12 [Example 45, N,N-dimethyl-2-{[6-(5-chloro-3-methylbenzo[b]thien-2-yl)sulfonyl]-6H-thieno[2,3-b]pyrrol-4-yl}ethylamine]	20.3 ± 3.4 nM
CN(C)CCc1cn(S(=O)(=O)c2ccccc2F)c2sccc12 [Example 46, N,N-dimethyl-2-{[6-(2-fluorophenyl)sulfonyl]-6H-thieno[2,3-b]pyrrol-4-yl}ethylamine]	1.8 ± 0.1 nM
CN(C)CCc1cn(S(=O)(=O)c2cccc(F)c2)c2sccc12 [Example 47, N,N-dimethyl-2-{[6-(3-fluorophenyl)sulfonyl]-6H-thieno[2,3-b]pyrrol-4-yl]-ethylamine]	2.1 ± 0.2 nM
CN(C)CCc1cn(S(=O)(=O)c2cccs2)c2sccc12 [Example 56, N,N-dimethyl-2-{(6-thien-2-ylsulfonyl)-6H-thieno[2,3-b]pyrrol-4-yl]-ethyllamine]	2.4 ± 0.2 nM
CN(C)CCc1cn(S(=O)(=O)c2cccc3ccccc23)c2sccc12 [Example 58, N,N-dimethyl-2-{[6-(1-naphthyl)sulfonyl]-6H-thieno[2,3-b]pyrrol-4-yl}ethylamine]	3.6 ± 0.1 nM
Cc1cccc(S(=O)(=O)n2cc(CCN(C)C)c3ccsc32)c1 [Example 59, N,N-dimethyl-2-{[6-(3-methylphenyl)sulfonyl]-6H-thieno[2,3-b]pyrrol-4-yl}ethylamine]	1.6 nM
Cc1nc(S(=O)(=O)n2cc(CCN(C)C)c3ccsc32)cn1C [Example 60, N,N-dimethyl-2-{[6-(1,2-dimethyl-1H-imidazol-4-yl)sulfonyl]-6H-thieno[2,3-b]pyrrol-4-yl}ethylamine]	50 ± 1 nM
CN(C)CCc1cn(S(=O)(=O)c2cccc3cccnc23)c2sccc12 [Example 61, N,N-dimethyl-2-{[6-(8-quinolinyl)sulfonyl]-6H-thieno[2,3-b]pyrrol-4-yl}ethylamine]	4.7 ± 0.1 nM
CN(C)CCc1cn(S(=O)(=O)c2ccccc2C(F)(F)F)c2sccc12 [Example 62, N,N-dimethyl-2-{{[6-(2-trifluoromethyl)phenyl]sulfonyl}-6H-thieno[2,3-b]pyrrol-4-yl}ethylamine]	4.7 ± 0.1 nM
